The text below walks through data of patent publication US8937062B2, “Compositions and methods for treating, reducing, ameliorating, or preventing infections caused by antibacterial drug-resistant bacteria” (Bausch & Lomb Incorporated, priority 2007, dated 2015).

Assay [1] relates to methicillin-resistant S. aureus. The assay is described as follows: MIC90, Japanese Society of Chemotherapy guidelines (1993), Table 3. The assay is classed as cell-based. The conditions noted are these: Staphylococcus aureus, read-out: MIC90. How it is done:
(§1) In a second test, compounds having Formulae IV and V, their racemic mixture, and OFLX were tested in vitro against S. aureus strains that are resistant to methicillin or penicillin. The test was conducted according to the guidelines of the Japanese Society of Chemotherapy (1993).

The test system of assay [2] is penicillin-resistant S. aureus. The assay is described as above. Format: cell-based. The conditions noted are these: Staphylococcus aureus, read-out: MIC90. The protocol: as §1
Assay [3] has as its system Methicillin-Resistant S. aureus Isolates. The assay is described as follows: In vitro anti-bacterial activity, fourth test, Table 5. Format: cell-based, Staphylococcus aureus. The following applies: Staphylococcus aureus, read-out: MIC90. The protocol: In a fourth test, the anti-bacterial activity of the compound having Formula IV was tested against some methicillin-resistant S. aureus bacteria strains and compared to the anti-bacterial activity of three commercially available antibiotics: nadifloxacin (“NDFX”), ofloxacin (“OFLX”), and sparfloxacin (“SPFX”).

Assay [4] concerns E. cloacae, extended-spectrum β-lactamase positive. The assay is described as follows: MIC90, broth microdilution (CLSI M7-A7), Table 4. Format: cell-based. The following applies: Enterobacter cloacae, 15 isolates. How it is done: (§2) The MIC90 values were determined according to the broth microdilution method outlined in the Clinical and Laboratory Standards Institute Approved Standard M7-A7 (2006).
In general terms: In broth dilution the organism is exposed to a series of concentrations in liquid medium.

Assay [5] has as its system H. influenzae, β-lactamase positive, ampicillin-resistant. In words: MIC90, broth microdilution (CLSI M7-A7), Table 4. The assay is classed as cell-based. The conditions noted are these: 25 isolates; for MIC90: Haemophilus influenzae. How it is done:
as §2

Assay [6] deals with H. influenzae, β-lactamase positive. In words: MIC90, broth microdilution (CLSI M7-A7), Table 4. Format: cell-based. The conditions noted are these: 53 isolates; for MIC90: Haemophilus influenzae. How it is done:
as §2

The subject of assay [7] is S. aureus, methicillin- and ciprofloxacin-resistant. The assay is described as follows: MIC90, broth microdilution (CLSI M7-A7), Table 4. The assay is classed as cell-based. The conditions noted are these: Staphylococcus aureus, 24 isolates. How it is done: as §2
The test system of assay [8] is S. aureus, methicillin-resistant and ciprofloxacin-sensitive. The assay is described as follows: MIC90, broth microdilution (CLSI M7-A7), Table 4. Format: cell-based. The following applies: 25 isolates; for MIC90: Staphylococcus aureus. The protocol:
as §2

For assay [9], the system named is S. aureus, vancomycin-intermediately resistant. In words: MIC90, broth microdilution (CLSI M7-A7), Table 4. The assay is classed as cell-based. The conditions noted are these: Staphylococcus aureus, 23 isolates. How it is done:
as §2

Assay [10] deals with S. aureus, vancomycin-resistant. The assay is described as follows: MIC90, broth microdilution (CLSI M7-A7), Table 4. The conditions noted are these: Staphylococcus aureus, 3 isolates, read-out: MIC90 Geometric Mean. The assay is classed as cell-based. How it is done:
as §2

The subject of assay [11] is S. epidermidis, methicillin-resistant. In words: MIC90, broth microdilution (CLSI M7-A7), Table 4. The assay is classed as cell-based. The conditions noted are these: Staphylococcus epidermidis, 64 isolates. The protocol: as §2
The test system of assay [12] is S. pneumoniae, levofloxacin-resistant. In words: MIC90, broth microdilution (CLSI M7-A7), Table 4. Format: cell-based. The conditions noted are these: Streptococcus pneumoniae, 25 isolates. The protocol:
as §2

Assay [13] relates to S. pneumoniae, penicillin-intermediately resistant. The assay is described as follows: MIC90, broth microdilution (CLSI M7-A7), Table 4. Format: cell-based. The conditions noted are these: Streptococcus pneumoniae, 26 isolates. How it is done: as §2
In assay [14] the test system is S. pneumoniae, penicillin-resistant. The assay is described as follows: MIC90, broth microdilution (CLSI M7-A7), Table 4. Format: cell-based. The following applies: 26 isolates; for MIC90: Streptococcus pneumoniae. The protocol:
as §2

In assay [15] the test system is S. pneumoniae Clinical Isolates. In words: In vitro activity against clinical isolates, sixth test, Table 7. Format: cell-based. The following applies: 78 isolates; for MIC90: Streptococcus pneumoniae.
The subject of assay [16] is S. aureus Clinical Isolates. Described as above. Format: cell-based. The following applies: Staphylococcus aureus, 49 isolates.

Converted amounts (≈) assume the structure as drawn. Read-outs that look alike come from different tables or passages of the source.

As to `N[C@H]1CCCCN(c2c(F)cc3c(=O)c(C(=O)O)cn(C4CC4)c3c2Cl)C1` [V], the MIC90 came to 0.1 µg/mL (≈ 0.254 µM) in [1] (ATCC33591, S. aureus (ATCC 33591)); 0.05 µg/mL (≈ 0.127 µM) in assay [1] (ATCC33592, S. aureus (ATCC 33592)); 0.05 µg/mL (≈ 0.127 µM) in assay [1] (ATCC33593, S. aureus (ATCC 33593)); 0.1 µg/mL (≈ 0.254 µM) in [1] (S. aureus (No. 395)); 0.05 µg/mL (≈ 0.127 µM) in [1] (S. aureus (No. 415)); 0.1 µg/mL (≈ 0.254 µM) in assay [1] (S. aureus (No. 419)). For the same molecule, the MIC90 is 0.05 µg/mL (≈ 0.127 µM) in assay [1] (S. aureus (No. 420)); 0.1 µg/mL (≈ 0.254 µM) in assay [1] (S. aureus (No. 421)); 0.05 µg/mL (≈ 0.127 µM) in assay [2] (ATCC11632, S. aureus (ATCC 11632)); 0.05 µg/mL (≈ 0.127 µM) in [2] (ATCC13301, S. aureus (ATCC 13301)).

Turning to `C[C@@H]1CN(c2c(F)c(N)c3c(=O)c(C(=O)O)cn(C4CC4)c3c2F)C[C@H](C)N1` [SPFX, sparfloxacin], the MIC90 in assay [3] (ATCC33591, Staphylococcus aureus (ATCC 33591)) came to 0.024 µg/mL (≈ 0.0612 µM); in assay [3] (ATCC33592, Staphylococcus aureus (ATCC 33592)), 0.1 µg/mL (≈ 0.255 µM); in [3] (ATCC33593, Staphylococcus aureus (ATCC 33593)) it was 0.024 µg/mL (≈ 0.0612 µM); in [3] (Staphylococcus aureus (No. 395)), 0.05 µg/mL (≈ 0.127 µM); in assay [3] (Staphylococcus aureus (No. 415)) it was 0.2 µg/mL (≈ 0.51 µM); in assay [3] (Staphylococcus aureus (No. 419)), 1.56 µg/mL (≈ 3.98 µM). Also, the MIC90 came out at 0.78 µg/mL (≈ 1.99 µM) in [3] (Staphylococcus aureus (No. 420)) and 0.39 µg/mL (≈ 0.994 µM) in assay [3] (Staphylococcus aureus (No. 421)).

Turning to `COc1c(N2C[C@@H]3CCCN[C@@H]3C2)c(F)cc2c(=O)c(C(=O)O)cn(C3CC3)c12` [MOFX, moxifloxacin], the MIC90 in assay [4] (read-out: MIC90 Geometric Mean) is 2.75 µg/mL (≈ 6.85 µM); in [4] (read-out: MIC90 Value), > 8 µg/mL; in assay [5] (read-out: MIC90 Geometric Mean), 0.047 µg/mL (≈ 0.117 µM); in [5] (read-out: MIC90 Value), 0.12 µg/mL (≈ 0.299 µM); in assay [6] (read-out: MIC90 Geometric Mean) it was 0.03 µg/mL (≈ 0.0747 µM); in assay [6] (read-out: MIC90 Value), 0.06 µg/mL (≈ 0.149 µM). Further, the MIC90 in assay [7] (read-out: MIC90 Geometric Mean) was 6.92 µg/mL (≈ 17.2 µM); in assay [7] (read-out: MIC90 Value), > 8 µg/mL; in assay [8] (read-out: MIC90 Geometric Mean), 0.057 µg/mL (≈ 0.142 µM); in assay [8] (read-out: MIC90 Value), 0.12 µg/mL (≈ 0.299 µM); in assay [9] (read-out: MIC90 Geometric Mean) it was 2.69 µg/mL (≈ 6.7 µM); in assay [9] (read-out: MIC90 Value), 8 µg/mL (≈ 19.9 µM). For the same molecule, the MIC90 in assay [10] is 6.35 µg/mL (≈ 15.8 µM); in [11] (read-out: MIC90 Geometric Mean), 1.12 µg/mL (≈ 2.8 µM); in [11] (read-out: MIC90 Value), > 8 µg/mL; in assay [12] (read-out: MIC90 Geometric Mean), 3.68 µg/mL (≈ 9.17 µM); in assay [12] (read-out: MIC90 Value) it was > 8 µg/mL; in assay [13] (read-out: MIC90 Geometric Mean) it was 0.209 µg/mL (≈ 0.521 µM). Also, the MIC90 in assay [13] (read-out: MIC90 Value) stood at 0.25 µg/mL (≈ 0.623 µM); in assay [14] (read-out: MIC90 Geometric Mean) it was 0.217 µg/mL (≈ 0.541 µM); in assay [14] (read-out: MIC90 Value), 0.25 µg/mL (≈ 0.623 µM); in assay [15], 0.12 µg/mL (≈ 0.299 µM). Besides, the “MIC90 Range” value is 0.015 to 0.12 µg/mL in assay [5]; 0.015 to 0.06 µg/mL in assay [6]; 0.015 to 8 µg/mL in assay [8]; 0.06 to 0.25 µg/mL in [14]; 0.06 to 0.25 µg/mL in assay [15].

For the molecule `COc1c(N2CCNC(C)C2)c(F)cc2c(=O)c(C(=O)O)cn(C3CC3)c12` (stereo not drawn) [GTFX, gatifloxacin], the MIC90 was 1.58 µg/mL (≈ 4.21 µM) in assay [4] (read-out: MIC90 Geometric Mean); > 8 µg/mL in assay [4] (read-out: MIC90 Value); 0.022 µg/mL (≈ 0.0586 µM) in assay [5] (read-out: MIC90 Geometric Mean); 0.03 µg/mL (≈ 0.0799 µM) in assay [5] (read-out: MIC90 Value); 0.014 µg/mL (≈ 0.0373 µM) in assay [6] (read-out: MIC90 Geometric Mean); 0.03 µg/mL (≈ 0.0799 µM) in [6] (read-out: MIC90 Value). Also, the MIC90 in assay [7] (read-out: MIC90 Geometric Mean) was > 8 µg/mL; in assay [7] (read-out: MIC90 Value), > 8 µg/mL; in [8] (read-out: MIC90 Geometric Mean), 0.099 µg/mL (≈ 0.264 µM); in assay [8] (read-out: MIC90 Value), 0.12 µg/mL (≈ 0.32 µM); in [9] (read-out: MIC90 Geometric Mean), 3.65 µg/mL (≈ 9.72 µM); in assay [9] (read-out: MIC90 Value), 8 µg/mL (≈ 21.3 µM). In addition, the MIC90 in [10] was 6.35 µg/mL (≈ 16.9 µM); in assay [11] (read-out: MIC90 Geometric Mean) it was 1.43 µg/mL (≈ 3.8 µM); in assay [11] (read-out: MIC90 Value), > 8 µg/mL; in [12] (read-out: MIC90 Geometric Mean) it was 5.43 µg/mL (≈ 14.5 µM); in assay [12] (read-out: MIC90 Value), > 8 µg/mL; in [13] (read-out: MIC90 Geometric Mean) it was 0.344 µg/mL (≈ 0.916 µM). Besides, the MIC90 was 0.5 µg/mL (≈ 1.33 µM) in assay [13] (read-out: MIC90 Value); 0.293 µg/mL (≈ 0.781 µM) in [14] (read-out: MIC90 Geometric Mean); 0.5 µg/mL (≈ 1.33 µM) in [14] (read-out: MIC90 Value); 2 µg/mL (≈ 5.33 µM) in assay [16]; 0.25 µg/mL (≈ 0.666 µM) in assay [15]. Further, the “MIC90 Range” value was in the range of 0.008 to 0.06 µg/mL in assay [5], 0.03 to 8 µg/mL in assay [8], 0.12 to 0.5 µg/mL in [14] and 0.12 to 0.5 µg/mL in assay [15].
